{
  "source": "paper PMC11945486",
  "about": "“TAS1R2/TAS1R3 Single-Nucleotide Polymorphisms Affect Sweet Taste Receptor Activation by Sweeteners: The SWEET Project” (Nutrients, 2025)",
  "target": "T1, mTAS1R2-WT/mTAS1R3-I60T (Mus musculus, UniProt Q925D8+Q925I4, I60T)",
  "T1 construct": "expressed in transfected cells; host or cells: HEK293T-Gα16gust44",
  "T1 sequence (Q925I4 20-843)": "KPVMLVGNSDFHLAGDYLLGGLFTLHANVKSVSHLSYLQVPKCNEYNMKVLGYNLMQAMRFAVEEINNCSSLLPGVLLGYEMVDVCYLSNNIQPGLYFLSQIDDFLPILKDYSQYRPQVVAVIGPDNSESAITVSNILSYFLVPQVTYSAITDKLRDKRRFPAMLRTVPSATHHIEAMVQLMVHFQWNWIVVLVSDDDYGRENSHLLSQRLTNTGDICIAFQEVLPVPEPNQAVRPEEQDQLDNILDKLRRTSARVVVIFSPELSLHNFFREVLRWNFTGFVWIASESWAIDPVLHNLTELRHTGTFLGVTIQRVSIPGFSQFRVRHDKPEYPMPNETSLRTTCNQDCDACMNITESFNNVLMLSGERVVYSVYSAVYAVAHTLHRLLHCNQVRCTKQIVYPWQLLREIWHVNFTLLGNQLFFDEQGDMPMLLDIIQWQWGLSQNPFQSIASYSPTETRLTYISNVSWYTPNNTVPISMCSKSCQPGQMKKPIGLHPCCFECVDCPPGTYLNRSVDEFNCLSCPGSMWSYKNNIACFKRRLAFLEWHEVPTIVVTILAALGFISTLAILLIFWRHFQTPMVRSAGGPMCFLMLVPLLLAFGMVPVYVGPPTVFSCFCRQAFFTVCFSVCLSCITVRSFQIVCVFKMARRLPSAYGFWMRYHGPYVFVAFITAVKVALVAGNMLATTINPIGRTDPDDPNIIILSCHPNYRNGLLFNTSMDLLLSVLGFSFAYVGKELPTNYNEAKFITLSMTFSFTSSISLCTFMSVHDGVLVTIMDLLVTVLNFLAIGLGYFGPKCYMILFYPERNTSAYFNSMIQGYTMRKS",
  "T1 sequence (Q925D8 21-858 I60T)": "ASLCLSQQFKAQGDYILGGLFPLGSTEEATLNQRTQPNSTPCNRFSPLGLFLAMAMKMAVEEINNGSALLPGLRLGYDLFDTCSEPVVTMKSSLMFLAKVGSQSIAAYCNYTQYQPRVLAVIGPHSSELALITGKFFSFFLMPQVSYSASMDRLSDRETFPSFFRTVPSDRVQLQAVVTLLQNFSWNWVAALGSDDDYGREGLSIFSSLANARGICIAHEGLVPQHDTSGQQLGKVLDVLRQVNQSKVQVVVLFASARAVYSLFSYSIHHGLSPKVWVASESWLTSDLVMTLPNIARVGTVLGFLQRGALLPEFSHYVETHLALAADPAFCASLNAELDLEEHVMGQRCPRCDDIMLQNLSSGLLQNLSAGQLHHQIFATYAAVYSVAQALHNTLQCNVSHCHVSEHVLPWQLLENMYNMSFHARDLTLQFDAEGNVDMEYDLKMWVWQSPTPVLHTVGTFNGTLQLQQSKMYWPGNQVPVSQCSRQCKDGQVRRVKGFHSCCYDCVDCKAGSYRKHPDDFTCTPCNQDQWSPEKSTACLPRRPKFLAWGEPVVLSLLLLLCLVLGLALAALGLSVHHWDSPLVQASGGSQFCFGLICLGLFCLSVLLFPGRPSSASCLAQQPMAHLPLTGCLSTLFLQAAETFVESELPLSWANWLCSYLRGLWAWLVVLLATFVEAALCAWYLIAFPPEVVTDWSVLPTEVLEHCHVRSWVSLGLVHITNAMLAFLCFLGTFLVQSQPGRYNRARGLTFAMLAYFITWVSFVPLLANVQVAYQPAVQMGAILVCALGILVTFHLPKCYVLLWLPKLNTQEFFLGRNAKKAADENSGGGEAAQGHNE",
  "experiment": "Calcium mobilisation assay, HEK293T-Gα16gust44 cells, mouse TAS1R3-I60T variant",
  "format": "cell-based",
  "settings": "\"-\": no activation; for EC50 / Max ΔF/F0: mTAS1R2-WT + mTAS1R3-I60T; for Max ΔF/F0: maximal signal amplitude; for R1 = Variant EC50/WT EC50: mTAS1R3-I60T vs mTAS1R3-WT",
  "experimental": "The HEK293T cells were kindly provided by Jay P. Slack (Givaudan Flavors Corporation; Cincinnati, OH, USA). HEK293T cells stably transfected with Gα16gust44 [43, 67] were seeded in poly-D-lysine-coated clear-bottom black 96-well plates (0.35 × 10^5 cells/well) in high-glucose DMEM supplemented with 2 mM GlutaMAX, 10% dialysed foetal bovine serum with penicillin/streptomycin and G418 (400 μg/mL) at 37 °C and 6.3% CO2 in a humidified atmosphere as previously reported. […] As a negative control, HEK293T cells were mock-transfected with the empty expression vector. After a further 24 h of incubation, the HEK293T cells were washed with C1 buffer (130 mM NaCl, 5 mM KCl, 10 mM HEPES pH 7.4 and 2 mM CaCl2). The 96-well plates containing the cells were then stimulated with sweet-tasting compounds. […] Different concentration ranges were tested depending on the sweet compound injected. The Ca^2+ changes were expressed as fractional changes in fluorescent light intensity: ΔF/F = (F − F0)/F0, where F was the fluorescent light intensity at each point, and F0 was the value of emitted fluorescent light prior to stimulus application. To calculate dose–response relationships, the changes in fluorescence upon stimulus application were averaged, mock-subtracted and baseline-corrected. The dose–response data obtained were adjusted using a 4-parameter logistic equation. The half-maximal effective concentrations (EC50 values) and maximal signal amplitudes were calculated using SigmaPlot software (version 15.0) (Systat Software; San Jose, CA, USA).\nHEK293T-Gα16gust44 cells were transiently cotransfected with pcDNA6-MAX-mTAS1R2-FLAG, pcDNA4-MAX-mTAS1R3-WT-FLAG or pcDNA4-MAX-mTAS1R3-I60T-FLAG, and pCMV-GCaMP5G as previously described in detail. After 24 h, the cells were washed with C1 buffer and stimulated with a logarithmically increasing range of sweetener concentrations. Calcium responses during automated application were monitored using a FlexStation®3 Multi-Mode microplate reader. The dose–response curves, EC50 values and maximal signal amplitudes were calculated as previously described.\nFor in vitro calcium mobilisation assay performed on hTAS1R2-SNPs, hTAS1R3-SNPs and mTAS1R3-I60T, 6 to 7 concentrations were tested for each sweet compound, plus buffer alone. All concentration–receptor combinations were measured in duplicate, and each experiment was repeated at least 4 times (8 wells/concentration). Results were expressed for each concentration as ΔF/F mean ± SEM and represented as dose–response curves.",
  "data": [
    {"smiles": "CC1=CC(=O)NS(=O)(=O)O1", "note": "[Acesulfame K, acesulfame K]", "values": [
      {"measurement": "EC50", "value": "744 ± 19", "unit": "µM"},
      {"measurement": "Max ΔF/F0", "value": "1.03 ± 0.02"},
      {"measurement": "R1 = Variant EC50/WT EC50", "value": 1.7}
    ]},
    {"smiles": "C[C@H](CC[C@@H](O[C@@H]1O[C@H](CO[C@@H]2O[C@H](CO)[C@@H](O)[C@H](O)[C@H]2O)[C@@H](O)[C@H](O)[C@H]1O[C@@H]1O[C@H](CO)[C@@H](O)[C@H](O)[C@H]1O)C(C)(C)O)[C@H]1CC[C@@]2(C)[C@@H]3CC=C4[C@@H](CC[C@H](O[C@@H]5O[C@H](CO[C@@H]6O[C@H](CO)[C@@H](O)[C@H](O)[C@H]6O)[C@@H](O)[C@H](O)[C@H]5O)C4(C)C)[C@]3(C)[C@H](O)C[C@]12C", "note": "[Mogroside V, mogroside V]", "values": [
      {"measurement": "EC50", "value": "225 ± 25", "unit": "µM"},
      {"measurement": "Max ΔF/F0", "value": "0.50 ± 0.03"},
      {"measurement": "R1 = Variant EC50/WT EC50", "value": 1.7}
    ]},
    {"smiles": "C=C1C[C@@]23CC[C@H]4[C@@](C)(CCC[C@@]4(C)C(=O)O[C@@H]4O[C@H](CO)[C@@H](O)[C@H](O[C@@H]5O[C@H](CO)[C@@H](O)[C@H](O)[C@H]5O)[C@H]4O[C@@H]4O[C@H](CO)[C@@H](O)[C@H](O)[C@H]4O)[C@@H]2CC[C@]1(O[C@@H]1O[C@H](CO)[C@@H](O)[C@H](O[C@@H]2O[C@H](CO)[C@@H](O)[C@H](O)[C@H]2O)[C@H]1O[C@@H]1O[C@H](CO)[C@@H](O)[C@H](O)[C@H]1O)C3", "note": "[Rebaudioside M, rebaudioside M]", "values": [
      {"measurement": "EC50", "value": "73 ± 2", "unit": "µM"},
      {"measurement": "Max ΔF/F0", "value": "0.71 ± 0.01"},
      {"measurement": "R1 = Variant EC50/WT EC50", "value": 1.7}
    ]},
    {"smiles": "OC[C@H]1O[C@H](O[C@]2(CCl)O[C@H](CCl)[C@@H](O)[C@@H]2O)[C@H](O)[C@@H](O)[C@H]1Cl", "note": "[Sucralose]", "values": [
      {"measurement": "EC50", "value": "1520 ± 56", "unit": "µM"},
      {"measurement": "Max ΔF/F0", "value": "1.47 ± 0.03"},
      {"measurement": "R1 = Variant EC50/WT EC50", "value": 2.0}
    ]}
  ]
}
